Data from US10828276B2, “Combination therapeutics and methods for the treatment of neurodegenerative and other diseases” (APHIOS CORPORATION, priority 2012, dated 2020).

Legend:
[1] = tested on: SH-SY5Y neuroblastoma cells; test: sAPP-a release from SH-SY5Y cells (6E10 western blot, densitometry); assay type: cell-based
Description: Cells were treated with RA, Bryostatin-1 (10^−9M)+RA, Bryostatin-1 (10^−10M), RA+Bryostatin-1 (10^−10M) for 3 h.

[2] = tested on: ADAM10; test: ADAM10 expression in SH-SY5Y cells; assay type: cell-based; conditions: single agents
Text: Therefore, Bryostatin-1 may increase […]-secretase processing through 2 independent mechanisms: (i) activation of PKCs which stimulate[…]secretase; and (ii) increased expression of […]-secretase.

[3] = tested on: Alzheimer's disease mediated memory loss; test: Water maze studies in sweAPP/PS1 mice; assay type: in vivo, Mouse strain B6C3-Tg
Text: Mouse strain B6C3-Tg carrying mutant Swedish Amyloid precursor protein (sweAPP) and PS1 (presenilin-1) genes associated with early onset Alzheimer's disease were subjected to water maze tests at 5-6 months of age.

CCC/C=C/C=C/C(=O)O[C@H]1/C(=C/C(=O)OC)C[C@H]2C[C@H]([C@@H](C)O)OC(=O)C[C@H](O)C[C@@H]3C[C@H](OC(C)=O)C(C)(C)[C@](O)(C[C@@H]4C/C(=C/C(=O)OC)C[C@H](/C=C/C(C)(C)[C@]1(O)O2)O4)O3 [Bryostatin-1]
sAPP formation ([1]; 10^−9M Bryostatin-1 alone): increased | activity of alpha-secretase ([1]; SH-SY5Y neuroblastoma cells): potently stimulate | sAPPa recovered from culture medium compared to control ([1]; single agents, RA 2 μM, Bryostatin-1 10^−10M, 3 h, p<0.05, p<0.01): significantly increased | expression of ADAM10 [2]: significantly increase | protection against Alzheimer's disease mediated memory loss (water maze) ([3]; 5 micrograms/mouse on alternative days orally in an oil formulation, mice 5-6 months of age, vs control animals): significant protection | memory and cognition in AD model ([3]; our AD model): enhance memory and cognition
